Values after ≈ are worked out from the molar mass of the structure shown.
Tests used:
[1] = tested on: Strep. faecalis; assay: Agar dilution assay, M.I.C.; type: cell-based
Method: (§1) Representative 3-halovinylglycines and amino acid conjugates were tested for antibacterial activity by an agar dilution assay [being an modification of the antagonist-free-medium assay described in: Antimicrobial Agents and Chemotherapy, May 1979, pp 677-683 and pp 684-695]. Compounds asayed include (L) and (D)-3-chlorovinylglycine (HCL salts), (L) norvalyl-(L), (D), and (DL)-3-chlorovinylglycine (CF3 COOH salts), and (L) norvalyl-(L), (D), and (DL)-3 fluorovinylglycine (CF3 COOH) salts.
(§2) The antibacterial activity of the representative structure I compounds versus eleven representative strains of pathogenic bacteria is shown in the following Table.
(§3) Agar Dilution Asay [minimum inhibitory concentration (M.I.C.)-mg/ml]

[2] = tested on: Ser. marcescens; assay: Agar dilution assay, M.I.C.; type: cell-based
Method: as §1, §2, §3

[3] = tested on: Prot. vulgaris; assay: Agar dilution assay, M.I.C.; type: cell-based
Method: as §1, §2, §3

[4] = tested on: E. coli; assay: Agar dilution assay, M.I.C.; type: cell-based
Method: as §1, §2, §3

[5] = tested on: E. coli TEM 2^+; assay: Agar dilution assay, M.I.C.; type: cell-based
Method: as §1, §2, §3

[6] = tested on: Ps. aeruginosa; assay: Agar dilution assay, M.I.C.; type: cell-based
Method: as §1, §2, §3

[7] = tested on: K. pneumoniae; assay: Agar dilution assay, M.I.C.; type: cell-based; conditions: for minimum inhibitory concentration (M.I.C.): agar dilution, K. pneumoniae
Method: as §1, §2, §3

[8] = tested on: S. aureus; assay: Agar dilution assay, M.I.C.; type: cell-based; conditions: for minimum inhibitory concentration (M.I.C.): agar dilution, S. aureus
Method: as §1, §2, §3

[9] = tested on: E. coli DC2; assay: Agar dilution assay, M.I.C.; type: cell-based
Method: as §1, §2, §3

[10] = tested on: Sal. typhimurium; assay: Agar dilution assay, M.I.C.; type: cell-based
Method: as §1, §2, §3

[11] = tested on: eleven representative strains of pathogenic bacteria; assay: Agar dilution assay, panel of eleven strains; type: cell-based; conditions: for number of test species against which activity is shown: M.I.C. equal to or less than 256 indicates antibacterial activity
Method: as §1, §2

[12] = tested on: cystathionine synthetase; conditions: synthesis of cystathionine from serine; cited from earlier work
[13] = tested on: Ent. cloacae P99^-; assay: Agar dilution assay, M.I.C.; type: cell-based
Method: as §1, §2, §3

Structure (SMILES)	minimum inhibitory concentration (M.I.C.) [1] [mg/mL]	minimum inhibitory concentration (M.I.C.) [2] [mg/mL]	minimum inhibitory concentration (M.I.C.) [3] [mg/mL]	minimum inhibitory concentration (M.I.C.) [4] [mg/mL]	minimum inhibitory concentration (M.I.C.) [5] [mg/mL]	minimum inhibitory concentration (M.I.C.) [6] [mg/mL]	minimum inhibitory concentration (M.I.C.) [7] [mg/mL]	minimum inhibitory concentration (M.I.C.) [8] [mg/mL]	minimum inhibitory concentration (M.I.C.) [9] [mg/mL]	minimum inhibitory concentration (M.I.C.) [10] [mg/mL]	number of test species against which activity is shown [11]	inactivation of cystathionine synthetase (in words) [12]	minimum inhibitory concentration (M.I.C.) [13] [mg/mL]	antibacterial activity (in words) ([7]; vs K. pneumoniae)	antibacterial activity (in words) ([8]; vs S. aureus)	antibacterial activity compared with the (L,D) diastereomer ([11]; antibacterial agar dilution assay)
C=C(Cl)C(NC(=O)[C@@H](N)CCC)C(=O)O (mixture of isomers) [(L)-NVA-(DL)-Cl-vinylgly, L-norvalyl-D,L-3-chlorovinylglycine]	4	> 256	256	128	> 256	> 256	32	≤ 0.25	4	256						
C=C(Cl)[C@H](NC(=O)[C@@H](N)CCC)C(=O)O.O=C(O)C(F)(F)F [(L)-NVA-(L)-Cl-vinylgly, (L,L)-Norvalyl 3-chlorovinylglycine trifluoroacetate]	4	> 256	256	32	8	> 256	2	0.5	1	64	8 of 11					
C=C(Cl)C(N)C(=O)O (racemic) [racemic 3-chlorovinylglycine, 2-amino-3-chloro-3-butenoic acid]												not being an inactivator				
C=C(F)[C@@H](NC(=O)[C@@H](N)CCC)C(=O)O.O=C(O)C(F)(F)F [(L)-NVA-(D)-F-vinylgly, (L,D)-Norvalyl-3-fluorovinylglycine trifluoroacetate]	> 256	> 256	> 256	> 256	> 256	> 256	> 256	> 256	> 256	> 256						
CCC[C@H](N)C(=O)N[C@H](C=CCl)C(=O)O [(L)-NVA-(D)-Cl-vinylgly, L-norvalyl-D-3-chlorovinylglycine]	128 (≈ 545 mM)		> 256	> 256	256 (≈ 1090 mM)	> 256	64 (≈ 273 mM)	16 (≈ 68.2 mM)	32 (≈ 136 mM)							
C=C(F)C(NC(=O)[C@@H](N)CCC)C(=O)O (stereo partly drawn) [(L)-NVA-(DL)-F-vinylgly, (L,DL)-Norvalyl-3-fluorovinylglycine trifluoracetate]	> 256	256 (≈ 1170 mM)	> 256	8 (≈ 36.7 mM)	128 (≈ 587 mM)	> 256	128 (≈ 587 mM)	1.0 (≈ 4.58 mM)	4 (≈ 18.3 mM)	256 (≈ 1170 mM)			64 (≈ 293 mM)			
N[C@@H](C=CCl)C(=O)O [(L)Cl vinylgly, L-3-chlorovinylglycine]		> 256	> 256	> 256	> 256	> 256	256 (≈ 1890 mM)	128 (≈ 944 mM)		> 256				exhibits antibacterial activity	exhibits antibacterial activity	
C=C(F)[C@H](NC(=O)[C@@H](N)CCC)C(=O)O.O=C(O)C(F)(F)F [(L)-NVA-(L)-F-vinylgly, (L,L)-Norvalyl-3-fluorovinylglycine trifluoroacetate]	64	64	32	4	16	> 256	2	> 256	2	128	9 of 11		32			more active

Reference: US4727062A, “3-Halovinylglycine antibacterial agents” (Merck & Co., Inc., priority 1986, dated 1988)
